Earlier results in EP0420232B1, “Water soluble derivatives of glycoside bioflavonoids, processes for their preparation and related pharmaceutical compositions” (EUROPEAN PHARMACY Srl, priority 1989, dated 1991).

Legend:
[1] = background statement
[2] = at room temperature; background statement

COc1ccc(-c2cc(=O)c3c(O)cc(O[C@@H]4O[C@H](CO[C@@H]5O[C@@H](C)[C@H](O)[C@@H](O)[C@H]5O)[C@@H](O)[C@H](O)[C@H]4O)cc3o2)cc1O [diosmin, 7-ramnoglycoside of 5,7,3'-trihydroxy-4'-methoxyflavone]
toxicity [1]: devoid of toxicity

C[C@@H]1O[C@@H](OC[C@H]2O[C@@H](Oc3c(-c4ccc(O)c(O)c4)oc4cc(O)cc(O)c4c3=O)[C@H](O)[C@@H](O)[C@@H]2O)[C@H](O)[C@H](O)[C@H]1O [rutin, 3-rutinoside of 3, 3', 4', 5,7-penthahydroxyflavone]
solubility in water [2]: very poorly soluble | toxicity [1]: devoid of toxicity
